Consider 20 molecules from US9586950B2 (MERCK SHARP & DOHME CORP., priority 2012, dated 2017).

Experiment [1] concerns the target T1, human orexin-2 receptor (Homo sapiens (Human), UniProt O43614). The experiment can be described thus: FLIPR Ca2+ Flux Assay, hOX2R FLIPR. The settings on record: CHO cells, 70 pM Ala-6,12 human orexin-A agonist. It is filed as cell-based. The protocol: (§1) In a typical experiment the OX1 and OX2 receptor antagonistic activity of the compounds of the present invention was determined in accordance with the following experimental method. For intracellular calcium measurements, Chinese hamster ovary (CHO) cells expressing the rat orexin-1 receptor or the human orexin-2 receptor, are grown in Iscove's modified DMEM containing 2 mM L-glutamine, […], 1% hypoxanthine-thymidine supplement, 100 U/ml penicillin, 100 μg/ml streptomycin and 10% heat-inactivated fetal calf serum (FCS). The cells are seeded at 20,000 cells/well into Becton-Dickinson black 384-well clear bottom sterile plates coated with poly-D-lysine. All reagents were from GIBCO-Invitrogen Corp. The seeded plates are incubated overnight at 37° C. and 5% CO2. Ala-6,12 human orexin-A as the agonist is prepared as a 1 mM stock solution in 1% bovine serum albumin (BSA) and diluted in assay buffer (HBSS containing 20 mM HEPES, 0.1% BSA and 2.5 mM probenecid, pH7.4) for use in the assay at a final concentration of 70 pM. Test compounds are prepared as 10 mM stock solution in DMSO, then diluted in 384-well plates, first in DMSO, then assay buffer. On the day of the assay, cells are washed 3 times with 100 μl assay buffer and then incubated for 60 min (37° C., 5% CO2) in 60 μl assay buffer containing 1 μM Fluo-4AM ester, 0.02% pluronic acid, and 1% BSA. The dye loading solution is then aspirated and cells are washed 3 times with 100 μl assay buffer. 30 μl of that same buffer is left in each well. Within the Fluorescent Imaging Plate Reader (FLIPR, Molecular Devices), test compounds are added to the plate in a volume of 25 μl, incubated for 5 min and finally 25 μl of agonist is added. Fluorescence is measured for each well at 1 second intervals for 5 minutes and the height of each fluorescence peak is compared to the height of the fluorescence peak induced by 70 pM Ala-6,12 orexin-A with buffer in place of antagonist. […] Alternatively, compound potency can be assessed by a radioligand binding assay (described in Bergman et. al. Bioorg. Med. Chem. Lett. 2008, 18, 1425-1430) in which the inhibition constant (Ki) is determined in membranes prepared from CHO cells expressing either the OX1 or OX2 receptor. The intrinsic orexin receptor antagonist activity of a compound which may be used in the present invention may be determined by these assays.

The target in experiment [2] is T1, human orexin-2 receptor. The experiment can be described thus: radioligand binding assay, hOX2R BIND. Particulars: membranes from CHO cells expressing OX2 receptor; read-out: hOX2R BIND hKi. The protocol:
as §1

Experiment [3] addresses hOX1R (orexin-1 receptor) (Rattus norvegicus, UniProt P56718). The experiment can be described thus: FLIPR Ca2+ Flux Assay, hOX1R FLIPR. It is filed as cell-based. The settings on record: CHO cells, 70 pM Ala-6,12 human orexin-A agonist. On the procedure:
as §1
(Calcium assays in cells follow changes in intracellular calcium, usually with a dye or a luminescent sensor.)

T1 sequence (O43614 whole entry): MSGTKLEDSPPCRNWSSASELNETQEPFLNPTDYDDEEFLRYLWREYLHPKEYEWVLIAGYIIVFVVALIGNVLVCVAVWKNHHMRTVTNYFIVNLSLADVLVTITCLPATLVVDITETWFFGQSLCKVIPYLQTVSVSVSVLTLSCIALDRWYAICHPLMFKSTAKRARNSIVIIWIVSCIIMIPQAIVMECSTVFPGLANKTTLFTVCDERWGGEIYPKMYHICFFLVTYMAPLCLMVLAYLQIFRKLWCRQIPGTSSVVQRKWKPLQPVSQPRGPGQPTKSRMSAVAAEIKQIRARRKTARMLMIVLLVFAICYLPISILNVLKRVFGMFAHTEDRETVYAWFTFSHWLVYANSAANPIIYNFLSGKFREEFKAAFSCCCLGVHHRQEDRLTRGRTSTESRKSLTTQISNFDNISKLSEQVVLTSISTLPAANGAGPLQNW

In general, IC50 refers to the concentration at which inhibition is half-maximal. A higher IC50 goes with weaker potency. In turn, `COC(=O)c1c(C#N)ccnc1O[C@@H]1CC[C@@H](C)N(C(=O)c2ccc(C)cc2-n2nccn2)C1` [Example 17, methyl 4-cyano-2-{[(3R,6R)-6-methyl-1-{[4-methyl-2-(2H-1,2,3-triazol-2-yl)phenyl]carbonyl}piperidin-3-yl]oxy}pyridine-3-carboxylate] gave an IC50 in experiment [1] of 24.3 nM. Further, the Ki in experiment [2] was 0.58 nM.

Take `COC(=O)c1c(C#N)ccnc1O[C@@H]1CC[C@@H](C)N(C(=O)c2ccccc2-c2nc(C)no2)C1` [Example 2, Methyl 4-cyano-2-{[(3R,6R)-6-methyl-1-{[2-(3-methyl-1,2,4-oxadiazol-5-yl)phenyl]carbonyl}piperidin-3-yl]oxy}pyridine-3-carboxylate]: the IC50 in experiment [1] came out at 20.8 nM; in experiment [3], 584 nM. Besides, the Ki in experiment [2] was found to be 0.37 nM.

Take `COC(=O)c1c(C#N)ccnc1O[C@@H]1CC[C@@H](C)N(C(=O)c2ccc(F)cc2-c2ncccn2)C1` [Example 22, methyl 4-cyano-2-({(3R,6R)-1-[(4-fluoro-2-pyrimidin-2-ylphenyl)carbonyl]-6-methylpiperidin-3-yl}oxy)pyridine-3-carboxylate]: the IC50 in experiment [1] is 33.6 nM; in experiment [3], 711 nM. Moreover, the Ki in experiment [2] came out at 0.68 nM.

For `COC(=O)c1c(C#N)ccnc1O[C@@H]1CC[C@@H](C)N(C(=O)c2ccc(F)cc2-c2nc(C)no2)C1` [Example 15, methyl 4-cyano-2-{[(3R,6R)-1-{[4-fluoro-2-(3-methyl-1,2,4-oxadiazol-5-yl)phenyl]carbonyl}-6-methylpiperidin-3-yl]oxy}pyridine-3-carboxylate], the IC50 in experiment [1] amounted to 31.8 nM; in experiment [3], 3080 nM. Moreover, the Ki in experiment [2] amounted to 2.2 nM.

As for `COC(=O)c1c(C#N)ccnc1O[C@@H]1CC[C@@H](C)N(C(=O)c2cc(F)ccc2-c2noc(C)n2)C1` [Example 13, methyl 4-cyano-2-{[(3R,6R)-1-{[5-fluoro-2-(5-methyl-1,2,4-oxadiazol-3-yl)phenyl]carbonyl}-6-methylpiperidin-3-yl]oxy}pyridine-3-carboxylate], the IC50 in experiment [1] was 16.8 nM; in experiment [3] it was 1030 nM. For the same molecule, in experiment [2], the Ki was 0.5 nM.

Regarding `COC(=O)c1c(C#N)ccnc1O[C@@H]1CC[C@@H](C)N(C(=O)c2c(C)cccc2-n2nccn2)C1` [Example 19, methyl 4-cyano-2-{[(3R,6R)-6-methyl-1-{[2-methyl-6-(2H-1,2,3-triazol-2-yl)phenyl]carbonyl}piperidin-3-yl]oxy}pyridine-3-carboxylate], the IC50 in experiment [1] came to 16.9 nM; in experiment [3] it was 208 nM. For the same molecule, the Ki in experiment [2] turned out to be 0.26 nM.

On to `COC(=O)c1c(C#N)ccnc1O[C@@H]1CC[C@@H](C)N(C(=O)c2cc(F)ccc2-n2nccn2)C1` [Example 6, methyl 4-cyano-2-{[(3R,6R)-1-{[5-fluoro-2-(2H-1,2,3-triazol-2-yl)phenyl]carbonyl}-6-methylpiperidin-3-yl]oxy}pyridine-3-carboxylate], for which the IC50 in experiment [1] came out at 18.2 nM; in experiment [3], 971 nM. For the same molecule, in experiment [2], the Ki came out at 0.42 nM.

As to `COC(=O)c1c(C#N)ccnc1O[C@@H]1CC[C@@H](C)N(C(=O)c2cc(C)ccc2-n2nccn2)C1` [Example 18, methyl 4-cyano-2-{[(3R,6R)-6-methyl-1-{[5-methyl-2-(2H-1,2,3-triazol-2-yl)phenyl]carbonyl}piperidin-3-yl]oxy}pyridine-3-carboxylate], the IC50 turned out to be 22 nM in experiment [1] and 311 nM in experiment [3]. In addition, in experiment [2], the Ki came to 0.48 nM.

`COC(=O)c1c(C#N)ccnc1O[C@@H]1CC[C@@H](C)N(C(=O)c2ccc(OC)nc2-n2nccn2)C1` [Example 3, methyl 4-cyano-2-{[(3R,6R)-1-{[6-methoxy-2-(2H-1,2,3-triazol-2-yl)pyridin-3-yl]carbonyl}-6-methylpiperidin-3-yl]oxy}pyridine-3-carboxylate] yielded an IC50 in experiment [1] of 33.8 nM. In addition, in experiment [2], the Ki is 1.9 nM.

In experiment [1], `COC(=O)c1c(C#N)ccnc1O[C@@H]1CC[C@@H](C)N(C(=O)c2c(F)cccc2-c2noc(C)n2)C1` [Example 14, methyl 4-cyano-2-{[(3R,6R)-1-{[2-fluoro-6-(5-methyl-1,2,4-oxadiazol-3-yl)phenyl]carbonyl}-6-methylpiperidin-3-yl]oxy}pyridine-3-carboxylate] returned an IC50 of 14.5 nM. Moreover, the Ki in experiment [2] was 0.99 nM.

Regarding `COC(=O)c1c(C#N)ccnc1O[C@@H]1CC[C@@H](C)N(C(=O)c2ccccc2-c2noc(C)n2)C1` [Example 10, methyl 4-cyano-2-{[(3R,6R)-6-methyl-1-{[2-(5-methyl-1,2,4-oxadiazol-3-yl)phenyl]carbonyl}piperidin-3-yl]oxy}pyridine-3-carboxylate], the IC50 in experiment [1] is 6.5 nM; in experiment [3], 698 nM. Moreover, the Ki in experiment [2] came to 0.53 nM.

In experiment [1], `COC(=O)c1c(C#N)ccnc1O[C@@H]1CC[C@@H](C)N(C(=O)c2ccccc2C2CCC2)C1` [Example 26, Methyl 4-cyano-2-(((3R,6R)-1-(2-cyclobutylbenzoyl)-6-methylpiperidin-3-yl)oxy)nicotinate] yielded an IC50 of 19.3 nM. The Ki in experiment [2] was determined as 0.26 nM.

Regarding `COC(=O)c1c(C#N)ccnc1O[C@@H]1CC[C@@H](C)N(C(=O)c2cc(F)ccc2-c2ncccn2)C1` [Example 23, methyl 4-cyano-2-({(3R,6R)-1-[(5-fluoro-2-pyrimidin-2-ylphenyl)carbonyl]-6-methylpiperidin-3-yl}oxy)pyridine-3-carboxylate], the results for the IC50 in experiment [1] and in experiment [3] were 32 nM and 417 nM, respectively. The Ki in experiment [2] amounted to 0.47 nM.

Consider `COC(=O)c1c(C#N)ccnc1O[C@@H]1CC[C@@H](C)N(C(=O)c2ccc(F)cc2-c2noc(C)n2)C1` [Example 12, methyl 4-cyano-2-{[(3R,6R)-1-{[4-fluoro-2-(5-methyl-1,2,4-oxadiazol-3-yl)phenyl]carbonyl}-6-methylpiperidin-3-yl]oxy}pyridine-3-carboxylate], for which the IC50 in experiment [1] turned out to be 30.2 nM. Further, the Ki in experiment [2] worked out at 1.2 nM.

The molecule `COC(=O)c1c(C#N)ccnc1O[C@@H]1CC[C@@H](C)N(C(=O)c2cccc(F)c2-c2ncccn2)C1` [Example 21, methyl 4-cyano-2-({(3R,6R)-1-[(3-fluoro-2-pyrimidin-2-ylphenyl)carbonyl]-6-methylpiperidin-3-yl}oxy)pyridine-3-carboxylate] came in with an IC50 in experiment [1] of 36.3 nM. In addition, in experiment [2], the Ki was found to be 1.2 nM.

In the case of `COC(=O)c1c(C#N)ccnc1O[C@@H]1CC[C@@H](C)N(C(=O)c2c(F)cccc2-n2nccn2)C1` [Example 7, methyl 4-cyano-2-{[(3R,6R)-1-{[2-fluoro-6-(2H-1,2,3-triazol-2-yl)phenyl]carbonyl}-6-methylpiperidin-3-yl]oxy}pyridine-3-carboxylate], the IC50 is 24 nM in experiment [1] and 432 nM in experiment [3]. The Ki in experiment [2] was 0.33 nM.

Turning to `COC(=O)c1c(C#N)ccnc1O[C@@H]1CC[C@@H](C)N(C(=O)c2ccc(F)cc2-n2nccn2)C1` [Example 5, methyl 4-cyano-2-{[(3R,6R)-1-{[4-fluoro-2-(2H-1,2,3-triazol-2-yl)phenyl]carbonyl}-6-methylpiperidin-3-yl]oxy}pyridine-3-carboxylate], the figures for the IC50 in experiment [1] and in experiment [3] were 21.8 nM and 1010 nM, respectively. Also, the Ki in experiment [2] was determined as 0.66 nM.

Molecule `COC(=O)c1c(C#N)ccnc1O[C@@H]1CC[C@@H](C)N(C(=O)c2c(F)cccc2-c2nc(C)no2)C1` [Example 9, methyl 4-cyano-2-{[(3R,6R)-1-{[2-fluoro-6-(3-methyl-1,2,4-oxadiazol-5-yl)phenyl]carbonyl}-6-methylpiperidin-3-yl]oxy}pyridine-3-carboxylate] showed a concentration for half-maximal inhibition (IC50) in experiment [1] of 38.8 nM. For the same molecule, the Ki in experiment [2] amounted to 1.1 nM.

Molecule `COC(=O)c1c(C#N)ccnc1O[C@@H]1CC[C@@H](C)N(C(=O)c2cccc(C)c2-n2nccn2)C1` [Example 16, methyl 4-cyano-2-{[(3R,6R)-6-methyl-1-{[3-methyl-2-(2H-1,2,3-triazol-2-yl)phenyl]carbonyl}piperidin-3-yl]oxy}pyridine-3-carboxylate] came in with an IC50 in experiment [1] of 27.7 nM. Besides, the Ki in experiment [2] was 0.52 nM.

Consider `COC(=O)c1c(C#N)ccnc1O[C@@H]1CC[C@@H](C)N(C(=O)c2c(F)cccc2-c2ncccn2)C1` [Example 24, methyl 4-cyano-2-({(3R,6R)-1-[(2-fluoro-6-pyrimidin-2-ylphenyl)carbonyl]-6-methylpiperidin-3-yl}oxy)pyridine-3-carboxylate], for which the IC50 in experiment [1] turned out to be 32.8 nM. In addition, the Ki in experiment [2] was determined as 0.42 nM.
